These results are taken from ChEMBL document CHEMBL3396979, “Synthesis and characterization of 1'-C-cyano-2'-fluoro-2'-C-methyl pyrimidine nucleosides as HCV polymerase inhibitors” (Bioorg Med Chem Lett, 2015).

Data set [1] has as its system Hepatitis C virus. Nature of the data set: Antiviral activity against HCV genotype 1b infected in human HuH7 cells by replicon based assay. The settings on record: Huh-7. In kind it is functional, cell-based, Hepacivirus hominis.
The nature of data set [2]: Inhibition of HCV genotype 1b NS5B RNA dependent RNA polymerase assessed as reduction in triphosphate activity. Further details: species or system Hepatitis C virus subtype 1b; call rule not given here.
Data set [3] has as its system Hepatitis C virus. Nature of the data set: Antiviral activity against HCV genotype 1a infected in human HuH7 cells by replicon based assay. In kind it is functional, cell-based, Hepacivirus hominis. The settings on record: subtype 1a, Huh-7. On the technique in general: In antiviral work, replicon cells carry a viral genome segment that copies itself.
For data set [4], the system named is Hepatitis C virus. Nature of the data set: Antiviral activity against HCV genotype 2a infected in human HuH7 cells by replicon based assay. Type of data set: functional, cell-based, Hepacivirus hominis. The settings on record: Huh-7.
The nature of data set [5]: Cytotoxicity against human HuH7 cells. In kind it is cell-based, Huh-7.
A short description of data set [6]: Drug metabolism in human HuH7 cells bearing HCV replicons assessed as formation of triphosphates at 10 uM after 72 hrs by liquid chromatography coupled to triple quadrupole mass spectrometry. In kind it is ADME, cell-based. The settings on record: huh-7, 72 h.
Data set [7] in a line: Drug metabolism in human HuH7 cells bearing HCV replicons assessed as formation of uridine-type triphosphates at 10 uM after 72 hrs by liquid chromatography coupled to triple quadrupole mass spectrometry. In kind it is ADME, cell-based. The settings on record: huh-7, 72 h.
Data set [8] can be described thus: Inhibition of HCV genotype 2a NS5B RNA dependent RNA polymerase assessed as reduction in triphosphate activity. Further details: species or system Hepatitis C virus subtype 2a.
A short description of data set [9]: Inhibition of HCV genotype 3a NS5B RNA dependent RNA polymerase assessed as reduction in triphosphate activity. More on the design: species or system Hepatitis C virus subtype 3a.
Data set [10] in a line: Inhibition of HCV genotype 4a NS5B RNA dependent RNA polymerase assessed as reduction in triphosphate activity. More on the design: species or system Hepatitis C virus subtype 4a.

A value given as a limit tells only on which side of the number the result lay.

Regarding `C[C@@]1(O)[C@H](O)[C@@H](CO)O[C@H]1n1ccc(=O)[nH]c1=O`, in data set [1], the response was half-maximal at 13.1 µM (EC50). Further, the IC50 (usually the midpoint of a concentration-inhibition curve) in [2] (read-out: IC50) was found to be 1.9 µM.

Turning to `C[C@@]1(F)[C@H](O)[C@@H](CO)O[C@H]1n1ccc(N)nc1=O`, the values for the half-maximal effective concentration (EC50) in data set [3] and in [1] were 0.6 µM and 2.3 µM, respectively. Further, the Ki (commonly a measure of affinity in units of concentration, obtained from inhibition or displacement) in data set [2] stood at 0.06 µM.

As for `C[C@@]1(O)[C@H](O)[C@@H](CO)O[C@@]1(C#N)n1ccc(N)nc1=O`, the EC50 – broadly, the concentration giving half of the maximal effect – was 76 µM in data set [3] and more than 89 µM in data set [1]. Also, in [2] (read-out: IC50), the IC50 is 17.7 µM.

Regarding `C[C@@]1(O)[C@H](O)[C@@H](CO)O[C@@]1(C#N)n1ccc(=O)[nH]c1=O`, the EC50 in data set [3] and in data set [1] was more than 89 µM each time. For the same molecule, the 50% inhibitory concentration (IC50) in data set [2] (read-out: IC50) came out at 27 µM.

For the molecule `C[C@@]1(F)[C@H](O)[C@@H](CO)O[C@@]1(C#N)n1ccc(=O)[nH]c1=O`, the 50% effective concentration (EC50) in data set [3] and in data set [1] was more than 89 µM each time. Moreover, the IC50 entry in data set [2] is on record as “Not Active”.

Turning to `C[C@@]1(F)[C@H](O)[C@@H](CO)O[C@@]1(C#N)n1ccc(N)nc1=O`, the EC50 in data set [3] and in data set [1] was more than 89 µM each time. Besides, the IC50 in data set [2] (read-out: IC50) came out at 57 µM.

`CC(C)OC(=O)[C@H](C)N[P@](=O)(OC[C@H]1O[C@@](C#N)(n2ccc(N)nc2=O)[C@](C)(F)[C@@H]1O)Oc1ccccc1`: the figures for the EC50 in data set [3], in [1] and in data set [4] were 2.9 µM, 17.6 µM and 2.3 µM, respectively. Also, the CC50 (commonly the concentration that lowers cell viability or growth by half) in data set [5] was more than 89 µM. Besides, the Drug metabolism entry in data set [6] is “metabolite_detected”; in [7] it was “metabolite_notdetected”.

With `CC(C)OC(=O)[C@H](C)N[P@](=O)(OC[C@H]1O[C@@](C#N)(n2ccc(=O)[nH]c2=O)[C@](C)(F)[C@@H]1O)Oc1ccccc1`, the EC50 in [1] is 63.5 µM; in data set [4] it was more than 88 µM. Besides, the CC50 in data set [5] is more than 89 µM. For the same molecule, the Drug metabolism result in data set [6] is “metabolite_detected”.

`C[C@@]1(O)[C@H](O)[C@@H](CO)O[C@H]1n1ccc(N)nc1=O`: the IC50 in data set [2] (read-out: IC50) amounted to 1.7 µM.

Consider `C[C@@]1(F)[C@H](O)[C@@H](CO)O[C@H]1n1ccc(=O)[nH]c1=O`, for which the EC50 in data set [3] and in [1] was more than 89 µM throughout. For the same molecule, the half-maximal inhibitory concentration (IC50) in [2] (read-out: IC50), in data set [8], in data set [9] and in data set [10] was 0.7 µM throughout.
